Measurements: ChEMBL document CHEMBL1135610, “Aza-peptide epoxides: a new class of inhibitors selective for clan CD cysteine proteases” (J Med Chem, 2002)
Calls of active or inactive are those of the source. The rule behind the calls is not given here.

Legend:
[1] = target: Cathepsin B (Homo sapiens) (UniProt P07858); test: Inhibitory activity against Cathepsin B; No inhibition
Papain (Carica papaya) [2] = target: T1, Papain (Carica papaya) (UniProt P00784); test: Inhibitory activity against papain; No inhibition
T1 sequence (whole entry): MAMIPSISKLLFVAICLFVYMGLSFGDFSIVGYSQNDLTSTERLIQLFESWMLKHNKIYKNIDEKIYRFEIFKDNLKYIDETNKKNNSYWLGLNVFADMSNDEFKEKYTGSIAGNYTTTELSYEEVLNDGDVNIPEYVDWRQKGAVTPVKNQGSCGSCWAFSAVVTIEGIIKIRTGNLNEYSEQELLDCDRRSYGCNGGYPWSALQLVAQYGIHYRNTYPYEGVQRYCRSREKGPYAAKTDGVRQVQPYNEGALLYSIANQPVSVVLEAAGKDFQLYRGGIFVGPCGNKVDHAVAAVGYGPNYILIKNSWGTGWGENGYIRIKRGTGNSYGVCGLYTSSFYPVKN

Legumain (Sus scrofa) [3] = test: Inhibitory activity against legumain
Caspase-3 (Homo sapiens) = target: T2, Caspase-3 (Homo sapiens) (UniProt P42574); test: Inhibitory activity against Caspase-3
T2 sequence (whole entry): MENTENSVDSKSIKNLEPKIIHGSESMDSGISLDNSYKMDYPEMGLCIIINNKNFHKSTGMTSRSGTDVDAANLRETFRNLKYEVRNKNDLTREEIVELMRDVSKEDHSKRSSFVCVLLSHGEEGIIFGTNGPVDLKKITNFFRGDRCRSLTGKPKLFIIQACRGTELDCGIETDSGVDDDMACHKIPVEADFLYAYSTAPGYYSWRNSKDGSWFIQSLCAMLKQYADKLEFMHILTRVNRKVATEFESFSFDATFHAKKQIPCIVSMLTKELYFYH

Caspase-8 (Homo sapiens) = Caspase-8 (Homo sapiens) (UniProt Q14790); test: Inhibitory activity against Caspase-8
Caspase-6 (Homo sapiens) = target: T3, Caspase-6 (Homo sapiens) (UniProt P55212); test: Inhibitory activity against Caspase-6
T3 sequence (whole entry): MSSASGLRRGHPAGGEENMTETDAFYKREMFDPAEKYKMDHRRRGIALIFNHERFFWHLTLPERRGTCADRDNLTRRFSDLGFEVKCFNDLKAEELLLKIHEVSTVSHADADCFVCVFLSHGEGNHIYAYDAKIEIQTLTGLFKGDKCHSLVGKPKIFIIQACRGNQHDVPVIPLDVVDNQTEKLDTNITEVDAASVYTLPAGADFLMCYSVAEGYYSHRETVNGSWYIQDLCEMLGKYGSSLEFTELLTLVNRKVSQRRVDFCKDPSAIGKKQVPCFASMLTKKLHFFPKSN

Caspase-1 (Homo sapiens) = target: T4, Caspase-1 (Homo sapiens) (UniProt P29466); test: Inhibitory activity against Caspase-1
T4 sequence (whole entry): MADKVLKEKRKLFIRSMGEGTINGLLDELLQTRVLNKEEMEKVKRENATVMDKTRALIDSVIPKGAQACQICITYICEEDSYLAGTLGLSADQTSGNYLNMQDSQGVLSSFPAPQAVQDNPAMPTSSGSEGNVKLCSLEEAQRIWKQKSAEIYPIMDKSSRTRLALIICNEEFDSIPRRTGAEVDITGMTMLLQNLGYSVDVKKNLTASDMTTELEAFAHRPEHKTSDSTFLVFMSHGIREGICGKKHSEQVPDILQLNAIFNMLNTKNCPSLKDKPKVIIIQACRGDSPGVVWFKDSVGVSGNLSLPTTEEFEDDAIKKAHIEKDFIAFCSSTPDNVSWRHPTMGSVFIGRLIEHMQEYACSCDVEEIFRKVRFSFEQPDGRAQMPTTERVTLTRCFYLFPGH

Legumain (Sus scrofa) [4] = test: Inhibitory activity against legumain; No inhibition
[5] = target: Cathepsin B (Homo sapiens) (UniProt P07858); test: Inhibitory activity against Cathepsin B
Papain (Carica papaya) [6] = target: T1, Papain (Carica papaya); test: Inhibitory activity against papain.

Sequence of Caspase-8 (Homo sapiens) (Q14790 217-374 limits assumed): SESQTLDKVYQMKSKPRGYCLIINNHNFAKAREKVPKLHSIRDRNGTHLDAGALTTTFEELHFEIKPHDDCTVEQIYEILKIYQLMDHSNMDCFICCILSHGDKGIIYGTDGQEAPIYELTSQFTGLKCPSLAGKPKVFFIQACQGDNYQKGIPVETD
Sequence of Caspase-8 (Homo sapiens) (Q14790 385-479 limits assumed): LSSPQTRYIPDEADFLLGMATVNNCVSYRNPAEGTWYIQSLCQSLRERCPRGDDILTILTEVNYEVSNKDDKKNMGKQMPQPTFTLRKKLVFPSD

Row | Structure (SMILES) | NI [1] | NI (Papain (Carica papaya) [2]) | k obs / 1 (Legumain (Sus scrofa) [3]) [M⁻¹ s⁻¹] | k obs / 1 (Caspase-3 (Homo sapiens)) [M⁻¹ s⁻¹] | k obs / 1 (Caspase-8 (Homo sapiens)) [M⁻¹ s⁻¹] | k obs / 1 (Caspase-6 (Homo sapiens)) [M⁻¹ s⁻¹] | k obs / 1 (Caspase-1 (Homo sapiens)) [M⁻¹ s⁻¹] | NI (Legumain (Sus scrofa) [4]) | k obs / 1 (Papain (Carica papaya) [2]) [M⁻¹ s⁻¹] | k obs / 1 [5] [M⁻¹ s⁻¹] | k obs / 1 (Papain (Carica papaya) [6]) [M⁻¹ s⁻¹]
1 | CCOC(=O)C1OC1C(=O)N(CC(N)=O)NC(=O)[C@@H](C)NC(=O)[C@@H](C)NC(=O)Cc1ccccc1 (stereo in doubt; 17) | inactive | inactive | 142 | – | – | – | – | – | – | – | –
2 | CC(C)[C@H](NC(=O)CCc1ccccc1)C(=O)N[C@@H](C)C(=O)NN(CC(=O)O)C(=O)C1OC1CCc1ccccc1 (stereo not given in full) | inactive | inactive | – | < 10 | < 10 | < 10 | 6130 | inactive | – | – | –
3 | CCOC(=O)C1OC1C(=O)N(CC(C)C)NC(=O)[C@@H](CC(C)C)NC(=O)[C@@H](CC(C)C)NC(=O)Cc1ccccc1 (stereo in doubt; 20) | inactive | – | – | – | – | – | – | inactive | 35 | – | –
4 | CC(C)[C@H](NC(=O)CCc1ccccc1)C(=O)N[C@@H](C)C(=O)NN(CC(=O)O)C(=O)C1OC1C(=O)OCc1ccccc1 (stereo not given in full) | – | – | 21 | 58 | 63 | 52 | 36200 | – | – | < 10 | < 10
